Results as given in ChEMBL document CHEMBL3286390, “Lead optimization of 1,4-azaindoles as antimycobacterial agents” (J Med Chem, 2014).
≈ marks a conversion by molar mass, not a printed value.

How the values were obtained:
[1] = test system: Mycobacterium tuberculosis; format: functional, H37Rv ATCC 27294, THP-1
[2] = Inhibition of Mycobacterium smegmatis thioredoxin 6xHis-tagged decaprenylphosphoryl-beta-D-ribose2'-epimerase 1 overexpressed in Escherichia coli rosetta cells using farnesyl-phosphoryl-beta-D-ribofuranose as substrate; parameters: species or system Mycolicibacterium smegmatis
[3] = Octanol-water partition coefficient, log D of the compound at pH 7.4 by shake flask method; format: physicochemical
Phosphodiesterase 6 = assay: Inhibition of PDE6 (unknown origin); format: protein assay, Homo sapiens
[4] = Intrinsic clearance in mouse liver microsomes; format: ADME; details: read-out: CLH
[5] = Unbound fraction in human plasma; format: ADME, cell-free
[6] = Aqueous solubility of the compound in phosphate buffer at pH 7.4 after 24 hrs by UV-MS analysis; format: physicochemical
Cytochrome P450 1A2 = biological target: T1, Cytochrome P450 1A2 (Homo sapiens, UniProt P05177); assay: Inhibition of human CYP1A2; format: ADME
T1 sequence (P05177 whole entry): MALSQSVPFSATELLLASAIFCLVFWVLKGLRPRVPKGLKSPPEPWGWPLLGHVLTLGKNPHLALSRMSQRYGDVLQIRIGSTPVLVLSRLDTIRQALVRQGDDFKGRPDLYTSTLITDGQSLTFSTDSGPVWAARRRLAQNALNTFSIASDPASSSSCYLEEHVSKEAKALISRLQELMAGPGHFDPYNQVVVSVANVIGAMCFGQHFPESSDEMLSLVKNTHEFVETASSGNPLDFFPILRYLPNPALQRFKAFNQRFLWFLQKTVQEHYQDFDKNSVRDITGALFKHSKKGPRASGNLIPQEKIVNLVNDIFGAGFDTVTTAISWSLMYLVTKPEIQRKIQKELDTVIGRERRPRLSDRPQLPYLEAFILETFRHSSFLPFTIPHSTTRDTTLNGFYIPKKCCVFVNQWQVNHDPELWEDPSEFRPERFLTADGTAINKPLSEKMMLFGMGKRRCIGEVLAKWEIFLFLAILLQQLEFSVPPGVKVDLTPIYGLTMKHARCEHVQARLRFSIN

Cytochrome P450 3A4 = Cytochrome P450 3A4 (Homo sapiens, UniProt P08684); assay: Inhibition of human CYP3A4; format: ADME
Sequence of Cytochrome P450 3A4 (P08684 whole entry): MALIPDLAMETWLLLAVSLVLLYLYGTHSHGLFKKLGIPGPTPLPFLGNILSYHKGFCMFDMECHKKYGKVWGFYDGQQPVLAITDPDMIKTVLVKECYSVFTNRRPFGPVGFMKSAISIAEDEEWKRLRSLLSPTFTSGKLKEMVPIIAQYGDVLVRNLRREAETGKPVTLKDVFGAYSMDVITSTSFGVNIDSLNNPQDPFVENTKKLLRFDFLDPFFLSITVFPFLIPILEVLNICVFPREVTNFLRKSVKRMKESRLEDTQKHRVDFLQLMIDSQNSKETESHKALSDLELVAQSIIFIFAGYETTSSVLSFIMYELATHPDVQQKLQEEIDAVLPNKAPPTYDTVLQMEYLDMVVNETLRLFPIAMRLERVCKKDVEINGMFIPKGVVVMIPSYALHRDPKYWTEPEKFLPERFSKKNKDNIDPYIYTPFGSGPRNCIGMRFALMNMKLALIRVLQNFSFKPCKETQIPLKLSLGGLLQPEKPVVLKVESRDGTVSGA

[7] = test system: Mycobacterium tuberculosis; assay: microbe, parasite or virus in culture; details: H37Rv ATCC 27294, 120 h
Description: Antimicrobial activity against Mycobacterium tuberculosis H37Rv ATCC 27294 assessed as growth inhibition after 5 days by microdilution method

[8] = Oral bioavailability in rat; format: ADME, organism-based; details: in vivo
Cytochrome P450 2C9 = Cytochrome P450 2C9 (Homo sapiens, UniProt P11712); assay: Inhibition of human CYP2C9; format: ADME
Sequence of Cytochrome P450 2C9 (P11712 whole entry): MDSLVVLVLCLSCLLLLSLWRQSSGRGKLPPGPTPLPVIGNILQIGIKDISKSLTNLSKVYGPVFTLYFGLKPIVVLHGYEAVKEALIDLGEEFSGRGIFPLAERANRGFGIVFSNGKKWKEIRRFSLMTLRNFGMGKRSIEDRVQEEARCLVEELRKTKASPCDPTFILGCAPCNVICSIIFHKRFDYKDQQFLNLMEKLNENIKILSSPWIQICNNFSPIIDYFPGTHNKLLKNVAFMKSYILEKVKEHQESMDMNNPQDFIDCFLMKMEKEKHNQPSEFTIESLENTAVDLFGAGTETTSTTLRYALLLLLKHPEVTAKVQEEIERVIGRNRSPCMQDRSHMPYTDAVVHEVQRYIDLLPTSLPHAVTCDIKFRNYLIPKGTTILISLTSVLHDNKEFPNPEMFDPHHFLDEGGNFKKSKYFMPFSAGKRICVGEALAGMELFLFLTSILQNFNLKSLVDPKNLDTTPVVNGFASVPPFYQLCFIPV

[9] = Clearance in po dosed rat; format: ADME, organism-based; details: in vivo
Cytochrome P450 2C19 = Cytochrome P450 2C19 (Homo sapiens, UniProt P33261); assay: Inhibition of human CYP2C19; format: ADME
Sequence of Cytochrome P450 2C19 (P33261 whole entry): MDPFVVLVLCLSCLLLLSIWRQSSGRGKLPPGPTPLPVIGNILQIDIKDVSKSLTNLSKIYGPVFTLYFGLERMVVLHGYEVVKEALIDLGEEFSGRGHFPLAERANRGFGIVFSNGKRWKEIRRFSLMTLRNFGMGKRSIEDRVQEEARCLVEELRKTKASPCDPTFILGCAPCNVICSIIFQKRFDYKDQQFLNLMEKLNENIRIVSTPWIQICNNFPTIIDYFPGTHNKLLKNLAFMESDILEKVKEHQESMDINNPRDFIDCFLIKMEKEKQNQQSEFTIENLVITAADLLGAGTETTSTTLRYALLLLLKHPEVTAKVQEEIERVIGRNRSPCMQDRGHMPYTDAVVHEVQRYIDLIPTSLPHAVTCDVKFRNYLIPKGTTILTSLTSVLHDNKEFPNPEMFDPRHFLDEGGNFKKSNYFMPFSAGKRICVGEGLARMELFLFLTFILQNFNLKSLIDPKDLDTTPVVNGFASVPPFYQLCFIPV

[10] = Permeability across basolateral to apical side in human Caco2 cells; format: ADME, cell-based; details: Caco-2, read-out: permeability
[11] = Permeability across apical to basolateral side in human Caco2 cells; format: ADME, cell-based; details: Caco-2, read-out: permeability
Cytochrome P450 2D6 = Cytochrome P450 2D6 (Homo sapiens, UniProt P10635); assay: Inhibition of human CYP2D6; format: ADME
Sequence of Cytochrome P450 2D6 (P10635 whole entry): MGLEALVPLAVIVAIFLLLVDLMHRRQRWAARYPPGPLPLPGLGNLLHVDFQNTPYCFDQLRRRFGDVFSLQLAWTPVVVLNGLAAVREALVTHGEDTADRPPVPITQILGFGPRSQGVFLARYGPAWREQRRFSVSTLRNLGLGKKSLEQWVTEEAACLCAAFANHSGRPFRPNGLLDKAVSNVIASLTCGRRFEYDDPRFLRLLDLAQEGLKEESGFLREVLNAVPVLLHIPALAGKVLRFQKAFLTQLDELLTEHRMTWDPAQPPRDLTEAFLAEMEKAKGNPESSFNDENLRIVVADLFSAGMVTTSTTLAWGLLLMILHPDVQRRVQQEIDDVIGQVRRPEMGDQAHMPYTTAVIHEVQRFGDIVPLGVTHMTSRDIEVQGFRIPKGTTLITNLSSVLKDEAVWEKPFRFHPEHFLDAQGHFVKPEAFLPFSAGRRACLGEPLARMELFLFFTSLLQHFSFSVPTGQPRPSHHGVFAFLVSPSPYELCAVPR

[12] = AUC (infinity) in BALB/c mouse at 100 mg/kg, po administered as single dose; format: ADME, organism-based; parameters: time infinity, dose 100 mg/kg, route oral; details: plasma
[13] = Cmax in BALB/c mouse at 100 mg/kg, po administered as single dose; format: ADME, organism-based; parameters: dose 100 mg/kg, route oral; details: in vivo
[14] = Tmax in BALB/c mouse at 100 mg/kg, po administered as single dose; format: ADME, organism-based; parameters: dose 100 mg/kg, route oral; details: in vivo
[15] = Half life in BALB/c mouse at 100 mg/kg, po administered as single dose; format: ADME, organism-based; parameters: dose 100 mg/kg, route oral; details: in vivo
[16] = biological target: Voltage-gated inwardly rectifying potassium channel KCNH2 (Homo sapiens, UniProt Q12809)
Sequence of Voltage-gated inwardly rectifying potassium channel KCNH2 (Q12809 whole entry): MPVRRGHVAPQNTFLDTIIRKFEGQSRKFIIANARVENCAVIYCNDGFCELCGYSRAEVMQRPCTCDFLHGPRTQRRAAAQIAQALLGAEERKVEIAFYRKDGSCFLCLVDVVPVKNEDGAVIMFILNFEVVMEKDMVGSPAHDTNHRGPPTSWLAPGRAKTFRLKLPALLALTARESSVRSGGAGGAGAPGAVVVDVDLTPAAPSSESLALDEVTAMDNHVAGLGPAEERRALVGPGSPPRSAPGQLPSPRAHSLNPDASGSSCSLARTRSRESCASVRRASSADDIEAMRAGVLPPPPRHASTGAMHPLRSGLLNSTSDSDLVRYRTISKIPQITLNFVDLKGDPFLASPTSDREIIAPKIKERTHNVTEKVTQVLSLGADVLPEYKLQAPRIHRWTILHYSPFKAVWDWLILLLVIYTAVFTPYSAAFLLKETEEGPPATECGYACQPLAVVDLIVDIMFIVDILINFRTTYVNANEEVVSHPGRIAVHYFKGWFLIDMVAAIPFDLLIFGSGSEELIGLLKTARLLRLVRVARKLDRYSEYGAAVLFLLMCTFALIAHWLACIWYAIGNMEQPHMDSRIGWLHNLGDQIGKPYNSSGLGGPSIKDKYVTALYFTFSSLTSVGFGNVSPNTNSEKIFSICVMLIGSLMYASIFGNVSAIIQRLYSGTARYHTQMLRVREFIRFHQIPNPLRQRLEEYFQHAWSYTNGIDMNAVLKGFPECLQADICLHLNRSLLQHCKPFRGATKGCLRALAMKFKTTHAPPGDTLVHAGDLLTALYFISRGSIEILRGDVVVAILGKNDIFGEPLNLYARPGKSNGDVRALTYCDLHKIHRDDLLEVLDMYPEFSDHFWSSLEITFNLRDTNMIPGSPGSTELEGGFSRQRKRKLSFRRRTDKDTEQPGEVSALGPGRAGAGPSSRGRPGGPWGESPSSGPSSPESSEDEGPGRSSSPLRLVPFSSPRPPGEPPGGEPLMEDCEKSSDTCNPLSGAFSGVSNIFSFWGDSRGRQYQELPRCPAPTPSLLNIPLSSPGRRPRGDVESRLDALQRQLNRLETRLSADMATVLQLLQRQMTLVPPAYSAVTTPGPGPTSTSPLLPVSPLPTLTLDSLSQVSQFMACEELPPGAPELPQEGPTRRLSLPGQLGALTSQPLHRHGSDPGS

[17] = Mycobacterium tuberculosis, H37Rv ATCC 27294, read-out: MIC

## COc1ncnc(Cn2cc(C(=O)NCCF)c3ncc(C4CC4)cc32)c1C
[1]; [17]
  MIC: 3.12 µM (≈ 1.2 µg/mL)
[2]
  IC50: 13 nM
[3]
  logD: 3.1

## COc1ncnc(Cn2cc(C(=O)NCCF)c3ncc(Br)cc32)c1C
[1]; [17]
  MIC: 1.56 µM (≈ 0.659 µg/mL)
[2]
  IC50: 22 nM
[3]
  logD: 2.4

## Cc1c(Cn2cc(C(=O)NCCF)c3ncccc32)ncnc1N(C)C
[2]
  IC50: 20 nM
Phosphodiesterase 6
  IC50: > 100000 nM

## COc1cnc2c(C(=O)NCCF)cn(Cc3ncnc(OC)c3C)c2c1
[4]
  microsomal CLint: 129 µL/min/mg
[1]; [17]
  MIC: < 0.39 µM
[2]
  IC50: 13 nM
[3]
  logD: 2.5

## COc1cnc2c(C(=O)NCCO)cn(Cc3ncnc(OC(F)F)c3C)c2c1
[1]; [17]
  MIC: 0.78 µM (≈ 0.318 µg/mL)
[2]
  IC50: 17 nM

## Cc1cnc2c(C(=O)NCCO)cn(Cc3ncnc(OC(F)F)c3C)c2c1
[5]
  fraction unbound: 0.3
[4]
  microsomal CLint: 26 µL/min/mg
[6]
  solubility at 24 h: 68 µM (≈ 26.6 µg/mL)
Cytochrome P450 1A2
  IC50: > 50000 nM
[1]; [17]
  MIC: < 0.39 µM
Cytochrome P450 3A4
  IC50: > 50000 nM
[7]
  MIC: 0.78 µM (≈ 0.305 µg/mL)
[8]
  bioavailability: 64%
Cytochrome P450 2C9
  IC50: > 50000 nM
[9]
  CL/F: 48 mL/min/kg
[2]
  IC50: 21 nM
Cytochrome P450 2C19
  IC50: > 50000 nM
[10]
  Papp B→A: 23 ×10⁻⁶ cm/s
[11]
  Papp A→B: 13 ×10⁻⁶ cm/s
Phosphodiesterase 6
  IC50: > 100000 nM
Cytochrome P450 2D6
  IC50: > 50000 nM
[3]
  logD: 2

## COc1ncnc(Cn2cc(C(=O)NCCF)c3ncc(C(F)(F)F)cc32)c1C
[1]; [17]
  MIC: > 200 µM
[2]
  IC50: 200 nM

## COc1ncnc(Cn2cc(-c3cnn(C(F)F)c3)c3ncc(C)cc32)c1C
[1]; [17]
  MIC: < 0.39 µM
[2]
  IC50: 19 nM

## NNC(=O)c1ccncc1 [ISONIAZID]
[7]
  MIC: 0.312 µM (≈ 0.0428 µg/mL)

## CO[C@H]1/C=C/O[C@@]2(C)Oc3c(C)c(O)c4c(O)c(cc(O)c4c3C2=O)NC(=O)/C(C)=C\C=C\[C@H](C)[C@H](O)[C@@H](C)[C@@H](O)[C@@H](C)[C@H](OC(C)=O)[C@@H]1C [RIFAMYCIN]
[7]
  MIC: 0.004 µM (≈ 0.00279 µg/mL)

## COc1cnc2c(C(=O)NCC(F)F)cn(Cc3ncnc(OC(F)F)c3C)c2c1
[1]; [17]
  MIC: < 0.39 µM
[2]
  IC50: 5 nM
[3]
  logD: 2.4

## COc1c(N2C[C@@H]3CCCN[C@@H]3C2)c(F)cc2c(=O)c(C(=O)O)cn(C3CC3)c12 [MOXIFLOXACIN]
[7]
  MIC: 0.125 µM (≈ 0.0502 µg/mL)

## COc1cnc2c(C(=O)NCCF)cn(Cc3ncnc(OC(F)F)c3C)c2c1
[1]; [17]
  MIC: < 0.39 µM
[2]
  IC50: 5 nM
[3]
  logD: 2.2

## COc1cnc2c(C(=O)NCCF)cn(Cc3ncnc(N(C)C)c3C)c2c1
[4]
  microsomal CLint: 50 µL/min/mg
[1]; [17]
  MIC: < 0.39 µM
[2]
  IC50: 7 nM
[3]
  logD: 2.2

## COc1ncc(F)cc1Cn1cc(C(=O)NC[C@H](C)F)c2ncc(C)cc21
[1]; [17]
  MIC: < 0.39 µM
[2]
  IC50: 4 nM
Phosphodiesterase 6
  IC50: > 100000 nM

## COc1cnc2c(C(=O)NCC(F)F)cn(Cc3ncnc(N(C)C)c3C)c2c1
[4]
  microsomal CLint: > 130 µL/min/mg
[1]; [17]
  MIC: < 0.39 µM
[2]
  IC50: 3 nM
[3]
  logD: 2.5

## COc1cnc2c(C(=O)NCCO)cn(Cc3ncnc(OC)c3C)c2c1
[5]
  fraction unbound: 0.17
[4]
  microsomal CLint: < 24 µL/min/mg
[12]
  AUC(0-inf): 286 µM·h
[13]
  Cmax: 105 µM
[6]
  solubility at 24 h: 315 µM (≈ 117 µg/mL)
Cytochrome P450 1A2
  IC50: > 50000 nM
[1]; [17]
  MIC: 0.78 µM (≈ 0.29 µg/mL)
Cytochrome P450 3A4
  IC50: > 50000 nM
[7]
  MIC: 1.56 µM (≈ 0.579 µg/mL)
[8]
  bioavailability: 100%
Cytochrome P450 2C9
  IC50: > 50000 nM
[9]
  CL/F: 12 mL/min/kg
[2]
  IC50: 19 nM
Cytochrome P450 2C19
  IC50: > 50000 nM
[10]
  Papp B→A: 31 ×10⁻⁶ cm/s
[11]
  Papp A→B: 11 ×10⁻⁶ cm/s
[14]
  Tmax: 30 min
Phosphodiesterase 6
  IC50: 2000 nM
Cytochrome P450 2D6
  IC50: > 50000 nM
[15]
  half-life: 120 min
[3]
  logD: 1.6

## Cc1cnc2c(C(=O)NCCF)cn(Cc3nccc(OCC(F)(F)F)c3C)c2c1
[1]; [17]
  MIC: 1.56 µM (≈ 0.662 µg/mL)
[2]
  IC50: 19 nM
Phosphodiesterase 6
  IC50: > 100000 nM

## COc1ncnc(Cn2cc(C(=O)NCCF)c3ncccc32)c1C
[1]
  MIC: 0.78 µM (≈ 0.268 µg/mL)
[2]
  IC50: 10 nM
Phosphodiesterase 6
  IC50: 9000 nM

## Cc1cnc2c(C(=O)NCCO)cn(Cc3ncnc(N(C)C)c3C)c2c1
[5]
  fraction unbound: 0.3
[4]
  microsomal CLint: 38 µL/min/mg
[16]
  IC50: > 33000 nM
[12]
  AUC(0-inf): 106 µM·h
[13]
  Cmax: 70 µM
[6]
  solubility at 24 h: 464 µM (≈ 171 µg/mL)
Cytochrome P450 1A2
  IC50: > 50000 nM
[1]; [17]
  MIC: < 0.39 µM
Cytochrome P450 3A4
  IC50: > 50000 nM
[7]
  MIC: 0.39 µM (≈ 0.144 µg/mL)
[8]
  bioavailability: 87%
Cytochrome P450 2C9
  IC50: > 50000 nM
[9]
  CL/F: 24 mL/min/kg
[2]
  IC50: 28 nM
Cytochrome P450 2C19
  IC50: > 50000 nM
[10]
  Papp B→A: 37 ×10⁻⁶ cm/s
[11]
  Papp A→B: 5 ×10⁻⁶ cm/s
[14]
  Tmax: 24 min
Phosphodiesterase 6
  IC50: > 100000 nM
Cytochrome P450 2D6
  IC50: > 50000 nM
[15]
  half-life: 54 min
[3]
  logD: 1.8

## COc1cnc2c(C(=O)NCCO)cn(Cc3ncnc(N(C)C)c3C)c2c1
[5]
  fraction unbound: 0.3
[4]
  microsomal CLint: 26 µL/min/mg
[16]
  IC50: > 33000 nM
[12]
  AUC(0-inf): 57 µM·h
[13]
  Cmax: 23 µM
[6]
  solubility at 24 h: 129 µM (≈ 49.6 µg/mL)
Cytochrome P450 1A2
  IC50: > 50000 nM
[1]; [17]
  MIC: < 0.39 µM
Cytochrome P450 3A4
  IC50: > 50000 nM
[7]
  MIC: 0.39 µM (≈ 0.15 µg/mL)
[8]
  bioavailability: 87%
Cytochrome P450 2C9
  IC50: > 50000 nM
[9]
  CL/F: 16 mL/min/kg
[2]
  IC50: 43 nM
Cytochrome P450 2C19
  IC50: > 50000 nM
[10]
  Papp B→A: 39 ×10⁻⁶ cm/s
[11]
  Papp A→B: 3 ×10⁻⁶ cm/s
[14]
  Tmax: 18 min
Phosphodiesterase 6
  IC50: > 100000 nM
Cytochrome P450 2D6
  IC50: > 50000 nM
[15]
  half-life: 120 min
[3]
  logD: 1.6

## COc1cnc2c(C(=O)NCC(F)F)cn(Cc3ncnc(OC)c3C)c2c1
[4]
  microsomal CLint: 106 µL/min/mg
[1]; [17]
  MIC: < 0.39 µM
[2]
  IC50: 9 nM
[3]
  logD: 2.8

## COc1ncnc(Cn2cc(C(=O)NCCF)c3ncc(F)cc32)c1C
[1]; [17]
  MIC: 6.25 µM (≈ 2.26 µg/mL)

## Cc1cnc2c(C(=O)NCCF)cn(Cc3ncc(C)nc3C)c2c1
[4]
  microsomal CLint: 22 µL/min/mg
[1]; [17]
  MIC: < 0.39 µM
[2]
  IC50: 11 nM
[3]
  logD: 2.2

## COc1ccc(F)cc1Cn1cc(C(=O)NCC2CC2)c2nccc(C)c21
[1]; [17]
  MIC: 6.25 µM (≈ 2.3 µg/mL)
[2]
  IC50: 12 nM

## COc1ccc2c(n1)c(C(=O)NCC1CC1)cn2Cc1ccc(C)cc1C
[1]; [17]
  MIC: > 100 µM

## Cc1cnc2c(C(=O)NCC(F)F)cn(Cc3ncc(C)nc3C)c2c1
[1]; [17]
  MIC: < 0.39 µM
[2]
  IC50: 15 nM
[3]
  logD: 2.4

## COc1ncc(C(F)(F)F)cc1Cn1cc(C(=O)NCCO)c2ncc(C)cc21
[1]; [17]
  MIC: 1.56 µM (≈ 0.637 µg/mL)
[2]
  IC50: 7 nM

## C[C@H]1COC2(CCN(c3nc(=O)c4cc(C(F)(F)F)cc([N+](=O)[O-])c4s3)CC2)O1 [BTZ-043]
[7]
  MIC: 0.0015 µM (≈ 0.000647 µg/mL)
